# Measurements from ChEMBL document CHEMBL5661976 (Cancer Res, 2007).
# Active and inactive are the calls of the source. No cut-off for these calls is given here.
# Experiments:
# [1] = target: Receptor tyrosine-protein kinase erbB-2 (Mus musculus, UniProt P70424); assay: Inhibition of ERBB2 expressed in mouse NIH3T3 cells; type: cell-based
# [2] = tested on: NCI-H3255; assay: Induction of apoptosis in human NCI-H3255 cells assessed as increase in cleavage of PARP at 1 micromol/L incubated for 72 hrs by Western blotting analysis; type: functional, cell-based; details: dose 1.0 µmol/L
# [3] = target: Receptor tyrosine-protein kinase erbB-3 (Homo sapiens) (UniProt P21860); assay: Inhibition of ERBB3 phosphorylation in human HCC827 cells expressing GFP at 1 to 10000 nmol/L incubated for 12 hrs by Western blotting analysis; type: cell-based; details: dose 1-10000 nmol/L
# Receptor tyrosine-protein kinase erbB-3 (Homo sapiens), sequence (P21860 whole entry): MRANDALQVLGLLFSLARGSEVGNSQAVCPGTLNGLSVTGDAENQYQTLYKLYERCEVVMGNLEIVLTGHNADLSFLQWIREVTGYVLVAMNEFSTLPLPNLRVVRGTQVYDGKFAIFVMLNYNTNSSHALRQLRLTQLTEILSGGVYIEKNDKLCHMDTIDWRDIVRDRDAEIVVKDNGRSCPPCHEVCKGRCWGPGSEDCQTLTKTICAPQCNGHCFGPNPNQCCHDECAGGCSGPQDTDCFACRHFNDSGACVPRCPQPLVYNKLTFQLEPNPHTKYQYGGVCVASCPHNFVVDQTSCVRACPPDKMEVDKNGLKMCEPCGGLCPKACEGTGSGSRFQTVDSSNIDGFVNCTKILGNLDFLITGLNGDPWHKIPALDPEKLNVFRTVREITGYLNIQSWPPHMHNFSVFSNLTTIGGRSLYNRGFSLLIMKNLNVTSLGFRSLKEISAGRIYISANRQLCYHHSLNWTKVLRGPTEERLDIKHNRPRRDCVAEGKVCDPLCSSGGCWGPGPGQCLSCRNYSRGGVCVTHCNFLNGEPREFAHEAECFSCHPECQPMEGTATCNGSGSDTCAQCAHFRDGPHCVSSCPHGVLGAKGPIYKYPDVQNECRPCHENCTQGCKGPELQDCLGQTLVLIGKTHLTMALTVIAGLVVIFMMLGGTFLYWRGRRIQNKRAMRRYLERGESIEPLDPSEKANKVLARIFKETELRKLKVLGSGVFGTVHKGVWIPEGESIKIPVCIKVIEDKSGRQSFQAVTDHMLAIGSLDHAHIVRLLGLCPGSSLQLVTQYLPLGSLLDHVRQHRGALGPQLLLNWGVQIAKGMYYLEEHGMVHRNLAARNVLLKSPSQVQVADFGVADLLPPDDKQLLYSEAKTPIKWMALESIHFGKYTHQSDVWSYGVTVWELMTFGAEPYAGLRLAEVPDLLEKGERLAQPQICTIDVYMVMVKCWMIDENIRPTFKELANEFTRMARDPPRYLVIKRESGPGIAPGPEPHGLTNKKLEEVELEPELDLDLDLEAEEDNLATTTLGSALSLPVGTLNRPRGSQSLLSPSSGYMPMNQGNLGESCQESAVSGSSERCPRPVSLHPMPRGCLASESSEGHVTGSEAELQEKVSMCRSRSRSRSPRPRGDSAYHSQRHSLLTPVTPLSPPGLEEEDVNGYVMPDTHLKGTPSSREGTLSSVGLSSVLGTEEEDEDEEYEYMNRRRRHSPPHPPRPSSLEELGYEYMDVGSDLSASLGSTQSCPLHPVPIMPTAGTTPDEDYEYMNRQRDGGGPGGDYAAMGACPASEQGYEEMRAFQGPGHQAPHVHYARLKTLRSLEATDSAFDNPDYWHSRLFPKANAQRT
# Receptor tyrosine-protein kinase erbB-2, sequence (P70424 whole entry): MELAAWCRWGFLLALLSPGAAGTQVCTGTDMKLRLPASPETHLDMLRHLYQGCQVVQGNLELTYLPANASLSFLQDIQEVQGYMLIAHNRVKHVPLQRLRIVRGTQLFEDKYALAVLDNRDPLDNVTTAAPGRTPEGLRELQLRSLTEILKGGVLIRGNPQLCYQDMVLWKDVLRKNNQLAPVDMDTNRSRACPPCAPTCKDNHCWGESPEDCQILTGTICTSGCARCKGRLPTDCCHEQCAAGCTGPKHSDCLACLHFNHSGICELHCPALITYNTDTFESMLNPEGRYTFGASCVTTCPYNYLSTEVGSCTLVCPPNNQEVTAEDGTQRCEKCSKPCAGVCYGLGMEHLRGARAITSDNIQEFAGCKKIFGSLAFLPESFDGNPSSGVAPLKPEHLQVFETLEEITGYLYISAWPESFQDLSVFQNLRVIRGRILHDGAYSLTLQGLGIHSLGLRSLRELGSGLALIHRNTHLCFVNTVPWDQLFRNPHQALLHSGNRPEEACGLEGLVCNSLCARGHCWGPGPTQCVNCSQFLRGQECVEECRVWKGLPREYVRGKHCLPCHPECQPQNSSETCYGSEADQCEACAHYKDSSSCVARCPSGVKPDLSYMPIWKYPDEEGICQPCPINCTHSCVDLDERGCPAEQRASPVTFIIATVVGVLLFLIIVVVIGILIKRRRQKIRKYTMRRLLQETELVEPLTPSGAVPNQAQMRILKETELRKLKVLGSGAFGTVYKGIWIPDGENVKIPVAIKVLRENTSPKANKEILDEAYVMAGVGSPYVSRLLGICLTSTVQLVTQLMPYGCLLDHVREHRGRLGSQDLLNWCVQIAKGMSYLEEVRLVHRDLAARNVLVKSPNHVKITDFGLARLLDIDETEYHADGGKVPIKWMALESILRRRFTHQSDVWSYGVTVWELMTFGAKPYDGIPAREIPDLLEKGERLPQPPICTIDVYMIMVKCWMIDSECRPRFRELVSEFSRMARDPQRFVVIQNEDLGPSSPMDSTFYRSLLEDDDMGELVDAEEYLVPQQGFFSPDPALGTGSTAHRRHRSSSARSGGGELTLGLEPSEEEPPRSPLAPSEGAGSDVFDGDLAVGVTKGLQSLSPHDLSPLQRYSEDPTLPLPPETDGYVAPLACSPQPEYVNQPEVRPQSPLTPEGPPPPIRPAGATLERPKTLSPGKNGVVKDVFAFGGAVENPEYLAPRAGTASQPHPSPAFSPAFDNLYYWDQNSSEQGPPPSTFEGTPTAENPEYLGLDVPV
IC50 [1],inhibition [3],Compound,Activity [2]
299 nM,–,C#Cc1cccc(Nc2ncnc3cc(OCCOC)c(OCCOC)cc23)c1 [ERLOTINIB],–
> 500 nM,Active,COc1cc2ncnc(Nc3ccc(F)c(Cl)c3)c2cc1OCCCN1CCOCC1 [GEFITINIB],Active
